Assay results from US4027039A (priority 1975, dated 1977).
Where “and” joins values, the source holds several entries; their conditions need not be identical. Equal entries are not always repeated. Where two headings read alike, the source gives them in different places.

Experiments:
[1] = tested on: Herpes virus
[2] = tested on: Influenza PR 8 virus; experiment: Influenza PR 8 in mice, oral; schedule by table; late read day 6 (Table 37), 7 (33, 36), 8 (32, 35, 47), 10 (38); control fraction 18/20 (Table 32), 19/20 (Table 35), else 100%; format: in vivo, mouse
[3] = tested on: Influenza B Massachusetts virus; experiment: Influenza B Mass. in mice, oral; late read day 5 (Table 39), 7 (Table 40), 11 (Tables 61, 65); control fraction 16/20 (Table 61), else 100%; format: in vivo, mouse
Protocol: A portion of a commercially available sample of amantadine was recrystallized from isopropanol. The activity of the material against Influenza B Mass. was tested for the sample as obtained, the recrystallized portion, and the mother liquor obtained from recrystallizing the portion.

[4] = tested on: viral infections; experiment: Antiviral screening in animals, general statements; settings: mouse, in vivo
[5] = tested on: Influenza, Ann Arbor virus; experiment: Influenza Ann Arbor in mice, subcutaneous; late read day 9 (Table 11), 7 (Tables 12, 14), 5 (Table 13); format: in vivo, mouse
[6] = tested on: Influenza, Ann Arbor virus; experiment: Influenza Ann Arbor in mice, oral; schedule by table; late read day 5 (Tables 15, 25, 29, 30), 6 (18, 20, 22, 23, 26, 27, 28, 54), 7 (14, 19, 21, 24, 53, 56), 8 (16, 17, 51), 9 (11, 55); format: in vivo, mouse
[7] = tested on: Vaccinia IHD virus; format: in vivo, mouse
[8] = tested on: Herpes virus; experiment: Herpes virus in chicken eggs, single dose 24 hours pre-infection; format: in vivo, chick embryo

## NNC(=O)c1ccncc1 [Isoniazid, isoniazid, reference compound]
[1]; total dose .0000005 μg
  No. animals surviving after 6-9 days: 4
  No. animals surviving when 100% (or given fraction) of controls are dead: 1
  Survivors: 1
[1]; total dose .005 μg
  No. animals surviving when 100% (or given fraction) of controls are dead: 1
[1]; total dose .05 μg
  No. animals surviving after 6-9 days: 4
  No. animals surviving when 100% (or given fraction) of controls are dead: 1
  Survivors: 1
[2]; total dose 5 μg
  No. animals surviving after 6-10 days: 5
[2]; total dose .0000005 μg
  No. animals surviving after 6-10 days: 1
  No. animals surviving when 100% (or given fraction) of controls are dead: 0
  Survivors: 0
[2]; total dose .000005 μg
  No. animals surviving when 100% (or given fraction) of controls are dead: 1
  Survivors: 0
[2]; total dose .00005 μg
  No. animals surviving after 6-10 days: 0
  No. animals surviving when 100% (or given fraction) of controls are dead: 0
  Survivors: 0
[2]; total dose .0005 μg
  No. animals surviving after 6-10 days: 0
  No. animals surviving when 100% (or given fraction) of controls are dead: 0
  Survivors: 0
[2]; total dose .005 μg
  No. animals surviving after 6-10 days: 1
  No. animals surviving when 100% (or given fraction) of controls are dead: 1
  Survivors: 1
[2]; total dose .05 μg
  No. animals surviving when 100% (or given fraction) of controls are dead: 0
  Survivors: 1
[2]; total dose .5 μg
  No. animals surviving when 100% (or given fraction) of controls are dead: 1
  Survivors: 1
[3]; total dose .000005 μg (5 pg)
  No. animals surviving after 5 days (Table 61: 11 days): 3
  No. animals surviving when 100% (Table 61: 16/20) of controls are dead: 0
  Survivors: 0
[3]; total dose .00005 μg (50 pg)
  No. animals surviving after 5 days (Table 61: 11 days): 2
  No. animals surviving when 100% (Table 61: 16/20) of controls are dead: 1
  Survivors: 0
[3]; total dose .0005 μg (500 pg)
  No. animals surviving after 5 days (Table 61: 11 days): 3
  No. animals surviving when 100% (Table 61: 16/20) of controls are dead: 2
  Survivors: 0
[3]; total dose .005 μg (5 ng)
  No. animals surviving after 5 days (Table 61: 11 days): 5
  No. animals surviving when 100% (Table 61: 16/20) of controls are dead: 1
  Survivors: 0
[3]; total dose .05 μg (50 ng)
  No. animals surviving after 5 days (Table 61: 11 days): 3
  No. animals surviving when 100% (Table 61: 16/20) of controls are dead: 1
  Survivors: 0
[3]; total dose .5 μg (500 ng)
  No. animals surviving after 5 days (Table 61: 11 days): 3
  No. animals surviving when 100% (Table 61: 16/20) of controls are dead: 0
  Survivors: 0
[4]
  activity in words: active
  maximum protective effect, treated animals survived: 30%

## N=C(N)NN [aminoguanidine, bicarbonate]
[3]; total dose 40 pg
  Survivors: 0
[3]; total dose 400 pg
  Survivors: 2
[3]; total dose 4 ng
  Survivors: 0
[3]; total dose 40 ng
  Survivors: 1
[3]; total dose 400 ng
  Survivors: 1
[3]; total dose 4 μg
  Survivors: 1
[4]
  activity in words: very pronounced protective effects

## N-hydroxyphthalamide
[4]
  activity in words: active

## O=C(C=NO)c1ccccc1 [phenylglyoxaloxime]
[4]
  activity in words: active

## N=C(N)NN [aminoguanidine]
[5]; subcutaneous, only at one dose level
  survival: 50%
[5]; total dose 3 μg
  No. animals surviving after 7 days: 6
  Survivors: 2
[5]; total dose 30 μg
  Survivors: 2
[5]; total dose .0003 μg
  No. animals surviving after 7 days: 8
  Survivors: 5
[5]; total dose .003 μg
  No. animals surviving after 7 days: 8
  Survivors: 0
[5]; total dose .03 μg
  Survivors: 1
[5]; total dose .3 μg
  Survivors: 1
[6]; oral
  activity in words: most active
[6]; oral, high dose
  treated animals survived: 50%
[6]; total dose 300 pg
  No. animals surviving after 5-7 days: 6
  Survivors: 1
[6]; total dose 3 ng
  Survivors: 1
[6]; total dose 30 ng
  Survivors: 2
[6]; total dose 300 ng
  Survivors: 4
[6]; total dose 3 μg
  No. animals surviving after 5-7 days: 8
  Survivors: 3
[6]; total dose 30 μg
  No. animals surviving after 5-7 days: 8

## NN [hydrazine]
[7]; 10 ng, day 6
  Statistical Significance of Tail Lesions: < .01
[7]; 10 ng, day 7
  Statistical Significance of Tail Lesions: < .05
[7]; 10 ng, day 11
  Statistical Significance of Tail Lesions: < .01
[7]; 10 ng, day 12
  Statistical Significance of Tail Lesions: < .01
[7]; 10 ng, day 14
  Statistical Significance of Tail Lesions: < .01
[7]; 10 ng, day 17
  Statistical Significance of Tail Lesions: < .01
[7]; 10 ng, day 21
  Statistical Significance of Tail Lesions: < .01
[7]; 1 μg, day 10
  Statistical Significance of Tail Lesions: < .01
[7]; 1 μg, day 11
  Statistical Significance of Tail Lesions: < .01
[7]; 1 μg, day 12
  Statistical Significance of Tail Lesions: < .01
[7]; 1 μg, day 14
  Statistical Significance of Tail Lesions: < .01
[7]; 1 μg, day 17
  Statistical Significance of Tail Lesions: < .01
[7]; 1 μg, day 21
  Statistical Significance of Tail Lesions: < .01
[7]; 10 [μg], day 10
  Statistical Significance of Tail Lesions: < .05
[7]; 10 [μg], day 11
  Statistical Significance of Tail Lesions: < .01
[7]; 10 [μg], day 12
  Statistical Significance of Tail Lesions: < .01
[7]; 10 [μg], day 14
  Statistical Significance of Tail Lesions: < .01
[7]; 10 [μg], day 17
  Statistical Significance of Tail Lesions: < .01
[7]; 10 [μg], day 21
  Statistical Significance of Tail Lesions: < .01
[7]; 100 [ng], day 5
  Statistical Significance of Tail Lesions: < .05
[7]; 100 [ng], day 6
  Statistical Significance of Tail Lesions: < .01
[7]; 100 [ng], day 7
  Statistical Significance of Tail Lesions: < .01
[7]; 100 [ng], day 8
  Statistical Significance of Tail Lesions: < .05
[7]; 100 [ng], day 10
  Statistical Significance of Tail Lesions: < .01
[7]; 100 [ng], day 11
  Statistical Significance of Tail Lesions: < .01
[7]; 100 [ng], day 12
  Statistical Significance of Tail Lesions: < .01
[7]; 100 [ng], day 14
  Statistical Significance of Tail Lesions: < .01
[7]; 100 [ng], day 17
  Statistical Significance of Tail Lesions: < .01
[7]; 100 [ng], day 21
  Statistical Significance of Tail Lesions: < .01
[8]; 2 μg
  Deaths on day 1: 3
  Deaths on day 2: 4
  Deaths on day 3: 1
  Deaths on day 4: 1
  No. dying 5-22 day: 0
  No. hatched: 1
  No. living longer than controls: 1
  Total deaths, 4th day: 9
[8]; 20 μg
  Deaths on day 1: 3
  Deaths on day 3: 4
  No. dying 5-22 day: 0
  No. hatched: 1
  No. living longer than controls: 1
  Total deaths, 4th day: 11
[8]; .00005 μg
  Deaths on day 3: 5
  No. dying 5-22 day: 0
  No. living longer than controls: 1
  Total deaths, 4th day: 9
[8]; .0005 μg
  Deaths on day 2: 6
  Deaths on day 3: 4
  No. dying 5-22 day: 0
  No. living longer than controls: 0
  Total deaths, 4th day: 12
[8]; .005 μg
  Deaths on day 2: 7
  Deaths on day 3: 4
  No. dying 5-22 day: 0
  No. living longer than controls: 0
  Total deaths, 4th day: 11
[8]; .05 μg
  Deaths on day 2: 5
  Deaths on day 3: 3
  No. dying 5-22 day: 0
  No. living longer than controls: 0
  Total deaths, 4th day: 10
[8]; .5 μg
  Deaths on day 3: 5
  Deaths on day 4: 1
  No. dying 5-22 day: 0
  No. living longer than controls: 0
  Total deaths, 4th day: 10
[8]; all doses
  Total no. living longer than controls: 3
[1]; total dose .0005 μg
  No. animals surviving after 6-9 days: 6 and 5
[1]; total dose .005 μg
  No. animals surviving after 6-9 days: 6
[1]; total dose .05 μg
  No. animals surviving after 6-9 days: 3 and 5
  No. animals surviving when 100% (or given fraction) of controls are dead: 1
[1]; total dose .5 μg
  No. animals surviving when 100% (or given fraction) of controls are dead: 1
[6]; oral
  activity in words: much less significant activity

## NN [hydrazine, hydrate]
[5]; total dose 5 μg
  No. animals surviving after 5-9 days: 6
[5]; total dose 5 μg, hydrate
  Survivors: 3
[5]; total dose 50 μg, hydrate
  No. animals surviving after 5-9 days: 7 and 4
[5]; total dose 500 μg
  Survivors: 0
[5]; total dose 500 μg, hydrate
  No. animals surviving after 5-9 days: 6 and 3
[5]; total dose .00005 μg
  No. animals surviving after 5-9 days: 1
  Survivors: 0
[5]; total dose .0005 μg, hydrate
  No. animals surviving after 5-9 days: 5 and 7
[5]; total dose .005 μg, hydrate
  No. animals surviving after 5-9 days: 3 and 4
[5]; total dose .05 μg, hydrate
  No. animals surviving after 5-9 days: 4 and 6
[5]; total dose .5 μg, hydrate
  No. animals surviving after 5-9 days: 7 and 5
[2]; total dose 5 μg
  No. animals surviving after 6-10 days: 1
  No. animals surviving when 100% (or given fraction) of controls are dead: 0
  Survivors: 0
[2]; total dose 50 μg
  No. animals surviving after 6-10 days: 1
  No. animals surviving when 100% (or given fraction) of controls are dead: 0
  Survivors: 0
[2]; total dose .000005 μg
  No. animals surviving after 6-10 days: 4
[2]; total dose .000005 μg, hydrate
  No. animals surviving when 100% (or given fraction) of controls are dead: 4
[2]; total dose .0005 μg, hydrate
  Survivors: 1
[2]; total dose .5 μg
  No. animals surviving when 100% (or given fraction) of controls are dead: 1
  Survivors: 1
[2]; total dose .5 μg, hydrate
  No. animals surviving after 6-10 days: 1
[6]; total dose 5 μg
  No. animals surviving after 5-9 days: 4
  Survivors: 0
[6]; total dose 50 μg
  No. animals surviving after 5-9 days: 4
  Survivors: 0
[6]; total dose 500 μg
  No. animals surviving after 5-9 days: 5
  Survivors: 0
[6]; total dose .00005 μg
  No. animals surviving after 5-9 days: 6
  Survivors: 0
[6]; total dose .0005 μg
  No. animals surviving after 5-9 days: 6
  Survivors: 0
[6]; total dose .005 μg
  No. animals surviving after 5-9 days: 3
  Survivors: 0
[6]; total dose .05 μg
  No. animals surviving after 5-9 days: 3
  Survivors: 1
[6]; total dose .5 μg
  No. animals surviving after 5-9 days: 6
  Survivors: 0
[4]
  activity in words: active
